Patent US6242600A, “2-piperazinone-1-acetic acid derivatives and their use” (Takeda Chemical Industries, Ltd., priority 1997, dated 2001)

tested on: platelet aggregation induced by ADP (platelet rich plasma); experiment: Inhibitory Effect on Platelet Aggregation in Guinea Pigs (induced by ADP); format: cell-based; conditions: Cavia porcellus; guinea pig platelet rich plasma, about 400,000 platelets/μl, 37° C., ADP final concentration 1 μM, test drug added 2 minutes before ADP; read-out: Inhibition of platelet aggregation by ADP, IC50
Experimental: Blood was collected from abdominal aorta of male guinea pigs under anesthesia with pentobarbital (20 mg/kg, i.p.) using sodium citrate as an anticoagulant (final concentration: 0.315%). The sodium citrate-supplemented blood was centrifuged at 1000 g for […] to obtain platelet rich plasma (PRP), which was further centrifuged at 1000 g for 10 minutes respectively at room temperature to obtain platelet poor plasma (PPP). The number of platelet was counted at automatic platelet counter (Sysmex E2500, Toaiyo-denshi). PRP was diluted with PPP to adjust the number of platelets to be about 400,000/μl. Platelet aggregation was measured as follows, using an 8-channel aggregometer (NBS HEMA TRACER VI, Niko Bioscience Inc.): The PRP (250 μl) was incubated at 37° C. for 2 minutes, to n added 25 μl of a test drug solution. Two minutes later, 25 μl of an agent (ADP; finalconcentration: 1 μM) for causing agglutination. The effect of the test drug was shown by the inhibition rate of the maximum aggregation rate of the test group against that of the control group.

| IC50 [nM] | SMILES |
| --- | --- |
| 70 | COC(=O)C[C@H]1C(=O)N(CC(=O)O)CCN1C(=O)[C@H](Cc1ccc(OC)cc1)NC(=O)C1CCN(c2ccncc2)CC1 [compound 9] |
| 38 | COC(=O)C[C@H]1C(=O)N(CC(=O)OC)CCN1C(=O)CCC(=O)N1CCN(c2ccccn2)CC1 [compound 12] |
| 240 | COC(=O)C[C@H]1C(=O)N(CC(=O)O)CCN1C(=O)[C@H](CC(=O)N1CCN(c2ccncc2)CC1)NS(=O)(=O)c1ccc(OC)cc1 [compound 33] |

Further lines, the compound ahead of its results:

| SMILES | IC50 [nM] |
| --- | --- |
| COC(=O)C[C@H]1C(=O)N(CC(=O)OC)CCN1C(=O)CCC(=O)N1CCN(c2ncccn2)CC1 [compound 14] | 75 |
| COC(=O)C[C@H]1C(=O)N(CC(=O)OC(C)(C)C)CCN1C(=O)[C@H](CC(=O)N1CCN(c2ccncc2)CC1)NC(=O)OC(C)(C)C [compound 20] | 44 |
| COC(=O)C[C@H]1C(=O)N(CC(=O)O)CCN1C(=O)[C@H](CC(=O)N1CCN(c2ccncc2)CC1)NC(=O)OC [compound 24] | 62 |
| COC(=O)C[C@H]1C(=O)N(CC(=O)O)CCN1C(=O)[C@@H](CC(=O)N1CCN(c2ccncc2)CC1)NS(=O)(=O)c1ccc(OC)cc1 [compound 31] | 60 |
| COC(=O)C[C@H]1C(=O)N(CC(=O)O)CCN1C(=O)[C@H](CC(=O)N1CCN(c2ccncc2)CC1)NCc1ccc(OC)cc1 [compound 36] | 220 |
| CN[C@H](CC(=O)N1CCN(c2ccncc2)CC1)C(=O)N1CCN(CC(=O)O)C(=O)[C@@H]1CC(=O)OC [compound 40] | 58 |
| COC(=O)C[C@H]1C(=O)N(CC(=O)O)CCN1C(=O)[C@@H](CC(=O)N1CCN(c2ccncc2)CC1)NC(=O)OCOC(=O)C(C)(C)C [compound 43] | 99 |
